Here are results for 6 compounds from publication PMC7337386 (bioRxiv, 2020).

For series [1] the following is noted: cited from earlier work; for time of peak concentration: after oral administration.
The test system of a further series is SARS-CoV-2. Particulars: single agent; cited from earlier work.
Series [2] deals with SARS-CoV-2 (USA_WA1/2020). As to the kind of experiment: SARS-CoV-2 viral cytopathic effect assay. It is filed as cell-based. Particulars: for interaction with nitazoxanide: in combination with nitazoxanide; for interaction with nitazoxanide / interaction with remdesivir: CPE assay; for interaction with remdesivir / interaction with remdesivir at high concentrations: in combination with remdesivir; for maximum rescue of CPE, drug alone: single agent.

The conditions of series [3]: healthy adults; cited from earlier work.

“Also recorded” adds a separate entry of the source.

Regarding `CCN(CC)Cc1cc(Nc2ccnc3cc(Cl)ccc23)ccc1O` [Amodiaquine], in series [1], the “time of peak concentration” value was at most 30 min and the half-life is reported as ~ 3 hours. The “loss of potency in Calu-3 (TMPRSS2+) versus Vero E6” value in the series on SARS-CoV-2 is given as over 10 fold. Besides, in series [2], the interaction with nitazoxanide result is “significant synergy; also recorded: notable synergism”; the interaction with remdesivir entry was “strong antagonistic effect”; the “interaction with remdesivir at high concentrations” value is on record as “synergize”; the “maximum rescue of CPE, drug alone” value was 40–60%.

On to `CCOC(=O)c1c(CSc2ccccc2)n(C)c2cc(Br)c(O)c(CN(C)C)c12` [Arbidol], for which, in series [2], the “concentrations showing synergism with remdesivir” value lay within 3 to 10 µM and the “interaction with remdesivir at high concentrations” value is “synergize”.

As for `OC(c1cc(C(F)(F)F)nc2c(C(F)(F)F)cccc12)C1CCCCN1` (centres unmarked) [Mefloquine], in series [2], the interaction with remdesivir entry is on record as “strong antagonistic effect” and the “interaction with remdesivir at high concentrations” value is recorded as “synergize”.

With `CC(=O)Oc1ccccc1C(=O)Nc1ncc([N+](=O)[O-])s1` [Nitazoxanide], the tolerability entry in series [3] is given as “well tolerated”. For the same compound, in the series with Vero E6 cells (10 μM), the toxicity is reported as ~ 20%. In addition, in the series with Vero E6 cells (concentration below 5 μM), the cytotoxicity entry is recorded as “not cytotoxic”. In addition, the “maximum rescue of CPE, drug alone” value in series [2] is reported as 40–60%.

On to `CCC(CC)COC(=O)[C@H](C)N[P@](=O)(OC[C@H]1O[C@@](C#N)(c2ccc3c(N)ncnn23)[C@H](O)[C@@H]1O)Oc1ccccc1` [Remdesivir], for which, in series [2], the interaction with nitazoxanide entry is listed as “significant synergy; also recorded: notable synergism” and the “maximum rescue of CPE, drug alone” value is on record as 40–60%.

For `CCNCc1cc(Nc2ccnc3cc(Cl)ccc23)ccc1O` [monodesethyl-amodiaquine], the peak concentration in series [1] (after oral administration of amodiaquine) is ~ 500 nM. Moreover, in series [1], the “time of peak concentration” value was 120 min and the “half-life in blood plasma” value was 220 to 432 h.
